Data published in ChEMBL document CHEMBL3045591, “Imidazole as an anti-epileptic: an overview” (Med Chem Res, 2012).

Key:
Mus musculus [1] = species on record: Mus musculus; assay: Anticonvulsant activity in acute seizure Mus musculus (mouse) model assessed as protection against maximal electroshock-induced seizures; type: functional
[2] = Toxicity in po dosed Rattus norvegicus albino (rat); type: organism-based; conditions: in vivo
Mus musculus [3] = species on record: Mus musculus; assay: Anticonvulsant activity in Mus musculus (mouse) assessed as protection against maximal electroshock-induced seizures; type: functional
Mus musculus [4] = assay: Anticonvulsant activity in Mus musculus (mouse) assessed protection against subcutaneous pentylenetetrazole-induced seizures; type: functional
Mus musculus [5] = species on record: Mus musculus; assay: Anticonvulsant activity in Mus musculus (mouse) assessed as protection against metrazole-induced seizures; type: functional
Mus musculus [6] = assay: Anticonvulsant activity in Mus musculus (mouse) assessed as protection against maximal electroshock-induced seizures compound co-administered with losartan 50 mg/kg, ip; type: functional; conditions: route intraperitoneal
Mus musculus [7] = species on record: Mus musculus; assay: Anticonvulsant activity against Mus musculus DBA/2 (mouse) assessed as protection against sound-induced seizure; type: functional; conditions: read-out: MED

## CC(C)OC(=O)NC1=NCC(c2ccccc2F)N1C (stereo not given)
Mus musculus [1]
  ED50: 23 mg/kg

## COc1cccc(-c2nc(-c3ccccc3)c(-c3ccccc3)[nH]2)c1
[2]
  MTD: ≤ 5000 mg/kg

## Clc1ccc(-c2nc(Cn3ccnc3)cs2)cc1
Mus musculus [3]
  Activity: 33%
Mus musculus [4]
  Activity: 33%

## CCCOC(=O)NC1=NCC(c2ccccc2F)N1C (stereo not given)
Mus musculus [1]
  ED50: 23 mg/kg

## Cc1ncc(C(=O)Oc2ccccc2)n1C(C)c1ccccc1.O=[N+]([O-])O (stereo not given)
Mus musculus [5]
  ED50: 68 mg/kg

## COC(=O)c1cnc(C)n1C(C)c1ccccc1.O=[N+]([O-])O (stereo not given)
Mus musculus [5]
  ED50: 68 mg/kg

## CCCC(CCC)C(=O)O [VALPROIC ACID]
Mus musculus [6]
  ED50: 195 mg/kg
Mus musculus [3]; Mus musculus
  ED50: 250 mg/kg

## O=[N+]([O-])c1cc2nc(O)c(O)nc2nc1-n1ccnc1
Mus musculus [7]
  minimal effective dose: 10 mg/kg
